From patent US20250101061A1, “UPREGULATION OF FERRITIN HEAVY CHAIN 1 EXPRESSION” (HBC Immunology Inc., priority 2022, published 2025) come the findings set out here.

One experiment concerns FTH1. Put plainly: FTH1 gene expression in human skeletal muscle cells (HSkMC) by qRT-PCR. The experiment is classed as cell-based. The settings on record: for FTH1 Fold Change at 0.625 μM / FTH1 Fold Change at 1.25 μM / FTH1 Fold Change at 2.5 μM / FTH1 Fold Change at 5 μM / FTH1 Fold Change at 10 μM: average of triplicate (SD ≤ 0.3); for FTH1 Fold Change, Average / FTH1 Fold Change (individual runs): SPH 100 μM or synthetic oligopeptide 10 μM, about 12 hours; for FTH1 Fold Change (individual runs): triplicate runs. On the procedure:
A cell line derived from human skeletal muscle was selected to assess the effect of SPH and oligopeptides on gene expression. HSkMC (PCS-950-010) obtained from ATCC (Manassas, VA) were propagated in Mesenchymal Stem Cell Basal Medium (ATCC) reduced serum medium supplemented with Primary Skeletal Cell Muscle Growth Kit (ATCC) that contains L-Glutamine (10 mM), Dexamethasone ([…]), rh epidermal growth factor (5 ng/ml), rh FGF-b (5 ng/ml), rh Insulin (25 μg/mL), and fetal bovine serum (4%), on 100 mm cell culture dishes. For this assay, the HSkMC cells were seeded in 24 well plates at a cell density of 1×10^4 cells/cm^2 and maintained at 37° C. in a humidified 5% CO2 atmosphere. […]
Total RNA was extracted using the UPzol reagent for the cell pellets, followed by a DNAse treatment (DNAse TURBO), using the manufacturer's protocols. Complementary DNA (cDNA) was synthesized with the High Capacity cDNA Reverse Transcription Kit (Applied Biosystems) using random hexamers. Gene expression levels were measured by qRT-PCR.
1 μl of cDNA corresponding to 50 ng of reverse transcribed RNA was amplified by Qpcr (QuantStudio™ 6 Flex Real-Time PCR System), using the TaqMan™ Universal PCR Master Mix (Catalog No. 4304437) and a TaqMan™ assay (Roche Molecular Systems, Inc., Pleasanton, CA).
FTH1 gene expression was estimated relative to expression of the housekeeping gene, beta-actin (ACTB), following the standard formula: […]
2-ΔCt. TaqMan™ probe IDs used were: (i) FTH1, Hs01694011_s1; and (ii) ACTB, Hs01060665_g1. All experiments were run in triplicate.
For orientation: Quantitative PCR measures a nucleic acid by following its amplification.

Experiment [1] deals with Immortalized human astrocytes (P10251-IM). Put plainly: Protection of human astrocytes from hemin-induced injury (LDH release assay). Format: cell-based. The note with it: 24 hr pre-treatment: SPH 160 μM, oligopeptide 10 μM, collagen control 160 μM; then 30 μM hemin 6 hrs; scaled to 0.1% Triton X-100 lysis. The procedure:
Immortalized human astrocytes (P10251-IM) were obtained from Innoprot, Spain and prepared under conditions recommended by the supplier. At 90% confluency, the P10251-IM cells were rinsed with 8 ml of DPBS and 2 ml of the T/E Solution (prepared as per Innoprot procedure), then added into an […] and gently rocked so that the P10251-IM cells would be completely covered. The flask was subsequently incubated at 37° C. for 2 minutes. Then 5 ml of fetal bovine serum (FBS) and the T/E solution from the flask were added into a 50 ml conical centrifuge tube. The flask was incubated for an additional 2 minutes, and the P10251-IM cells dislodged from the surface by gentle tapping. The P10251-IM cells were then transferred to the 50 ml conical centrifuge tube with 5 ml of TNS solution. The tube was centrifuged at 1000 rpm for 5 minutes. Then the P10251-IM cells were resuspended in the culture medium, counted, and plated in a poly-L-lysine-coated culture plate at 1×10^4 cell density. Cells were tested after they were incubated for 21 days in vitro.
Confluent P10251-IM cell cultures were washed and then pre-treated with medium alone, or medium supplemented with SPH (160 μM) or an oligopeptide (10 μM) for 24 hr at 37° C. Commercial collagen peptide (Vital Protein) at 160 μM concentration and sterile water were used as negative controls. The P10251-IM cells were subsequently treated with 30 μM hemin in serum-free medium consisting of MEM with 10 mM glucose (MEM10) for 6 hrs.
P10251-IM astrocyte cultures that were […] with 30 μM hemin sustained widespread cell injury. Cell viability was quantified using the lactate dehydrogenase (LDH) release assay as previously described (Chen and Regan, Curr Neurovasc Res, 2:189-196, 2005). Briefly, quantification of the protective effects of SPH and oligopeptides were assessed by determining the mean percentage LDH released, scaled to the complete lysis control culture which was treated with 0.1% Triton X-100 (considered to release 100% of culture LDH).
Background: LDH in the medium is a marker of cell lysis.

Where “and” joins values, the source holds several entries; their conditions need not be identical. Equal entries are not always repeated.

As to REESGEP [FT-002], in the experiment with FTH1, the “FTH1 Fold Change at 0.625 μM” value is 1.0 fold, the “FTH1 Fold Change at 1.25 μM” value came to 1.0 fold, the “FTH1 Fold Change at 2.5 μM” value worked out at 1.1 fold and the “FTH1 Fold Change at 5 μM” value is 1.4 fold. Also, in the experiment with FTH1, the “FTH1 Fold Change at 10 μM” value worked out at 2.2 fold; the “FTH1 Fold Change, Average” value is on record as 2.2 fold; the “FTH1 Fold Change (individual runs)” value is 2.1 fold and 2.0 fold and 2.5 fold.
In the case of REESGE [FT-001], in the experiment with FTH1, the “FTH1 Fold Change, Average” value came out at 1.7 fold; the “FTH1 Fold Change (individual runs)” value is 1.6 fold and 1.8 fold (2×).
Take “Triton X-100 [0.1% Triton X-100, reference compound]”: in experiment [1], the “% LDH Release (individual runs)” value is 100% (2×) and 99%; the “% LDH Release, Average” value turned out to be 100%.
Consider KEEDEESGE [FT-003], for which, in the experiment with FTH1, the “FTH1 Fold Change, Average” value stood at 1.1 fold; the “FTH1 Fold Change (individual runs)” value is 1.1 fold and 1.0 fold and 1.3 fold.
Consider LDEESGEP [FT-005], for which, in the experiment on FTH1, the “FTH1 Fold Change, Average” value is reported as 1.8 fold; the “FTH1 Fold Change (individual runs)” value is 1.7 fold and 1.8 fold (2×).
For KPREESGE [FT-004], in the experiment on FTH1, the “FTH1 Fold Change at 0.625 μM” value stood at 1.1 fold, the “FTH1 Fold Change at 1.25 μM” value was 1.1 fold, the “FTH1 Fold Change at 2.5 μM” value was 1.1 fold and the “FTH1 Fold Change at 5 μM” value came out at 1.3 fold. Also, in the experiment on FTH1, the “FTH1 Fold Change at 10 μM” value was 2.1 fold; the “FTH1 Fold Change, Average” value turned out to be 2.1 fold; the “FTH1 Fold Change (individual runs)” value is 2.1 fold and 2.2 fold and 1.9 fold.
